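Exposure lasted 48 hours, with cells grown in 96-well plates and compounds tested at five concentrations. TGI marks complete inhibition of growth.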
Columns and labels:
Assay in all cases: NCI tumour cell line growth inhibition, 48 h
LXFL 529 NSCLC = system: LXFL 529 NSCLC
KM20L2 colon = system: KM20L2 colon
HOP-18 NSCLC = system: HOP-18 NSCLC
RXF-631 renal = system: RXF-631 renal
XF 498 CNS = system: XF 498 CNS
M19-MEL melanoma = system: M19-MEL melanoma
P388/ADR leukemia = system: P388/ADR leukemia
P388 leukemia = system: P388 leukemia
SN12K1 renal = system: SN12K1 renal

SMILES	TGI (LXFL 529 NSCLC) [µM]	TGI (KM20L2 colon) [µM]	TGI (HOP-18 NSCLC) [µM]	TGI (RXF-631 renal) [µM]	TGI (XF 498 CNS) [µM]	TGI (M19-MEL melanoma) [µM]	TGI (P388/ADR leukemia) [µM]	TGI (P388 leukemia) [µM]	TGI (SN12K1 renal) [µM]
C[N+](C)=c1ccc2nc3c(ccc4ccccc43)oc-2c1	19.4	27.1	23.6	20.8	27.4	12.5			
C[N+](C)(C)CCOC(=O)/C=C/c1cnc[nH]1		> 500	> 500		> 500	> 500	> 316	> 500	> 500
N=S(=O)(c1ccccc1)c1ccccc1	> 100	> 100	> 100			> 100			
Brc1c2nc3ccccc3nc2n2ccc3ccccc3c12	> 100	> 100			> 100	> 100			
Nc1ccc2nc(Nc3ccc(Cl)c(Cl)c3)cnc2c1						39.2			
N=c1n(CC(=O)NC23CC4CC(CC(C4)C2)C3)c2ccccc2n1CC(=O)NC12CC3CC(CC(C3)C1)C2	3.46	3.2	4.5		2.93	3.09			
C=C1C2C[C@@H]3OC4CC5O[C@]6(CC5OC4C(C)C3OC(=O)CC3CC[C@@H]4OC5C7OC8C[C@](CCC9CC(=C)[C@H](CCC(C[C@H]1C)O2)O9)(OC7C4O3)O[C@@H]85)C[C@@H]1O[C@@]2(CC(C)[C@@H]3OC(CC(=O)CCO)C(O)C[C@@H]3O2)CC(C)[C@@H]1O6 (stereo partly specified)	1.19	< 0.001							
C/C=C/c1cc2c(c(=O)o1)C(=O)[C@@H](O)[C@H](C)O2		30.5	31.9			27.2		7.15	31.8
CO[C@H]1CC[C@]2(C)C3=CC[C@@]4(C)C(CC[C@@H]4C(C)CC[C@@H](C)C(C)C)C(=CCC2C1)O3 (stereo partly specified)	> 25	> 25	> 25		> 25	> 25			
Nc1ncnc2c1sc(=S)n2-c1ccccc1	> 100	> 100	> 100		> 100	> 100			
Nc1ncnc2c1ncn2CCCC(c1ccccc1)P(=O)(O)O (stereo unspecified)	> 100	> 100			> 100	> 100			
CCCCCCCCCCCCCCCCNCC(O)CN (stereo unspecified)		7.19	14		23.9	5.79		2.68	3.44
COc1cc(N)c2[nH]c3c(C)ccc(C)c3c2c1					> 100	> 100			
CC(=O)Oc1c2c(c(OC(C)=O)c3c1n(C(C)=O)c1ccccc1n3C(C)=O)n(C(C)=O)c1ccccc1n2C(C)=O	16.5					14.4			
COc1ccc(C2S/C(=C\c3cccc(OC)c3)C(=O)N2NC(=O)Cc2ccccc2)cc1 (stereo unspecified)	> 100		> 100			> 100			
